Article PMC11841048 (ACS Infectious Diseases, 2025)
Where “and” joins values, the source holds several entries; their conditions need not be identical. Equal entries are not always repeated. Where two headings read alike, the source gives them in different places.

Key:
CjIMPDH = CjIMPDH (Campylobacter jejuni, UniProt Q0P9J4, DEL92-194/T195G); test: biochemical; conditions: Ki,app
BaIMPDH (wild-type) [1] = biological target: T1, BaIMPDH (wild-type) (Bacillus anthracis, UniProt A0A6L8P2U9); test: biochemical; conditions: Ki,app
T1 sequence (A0A6L8P2U9 221-487, added parts left off): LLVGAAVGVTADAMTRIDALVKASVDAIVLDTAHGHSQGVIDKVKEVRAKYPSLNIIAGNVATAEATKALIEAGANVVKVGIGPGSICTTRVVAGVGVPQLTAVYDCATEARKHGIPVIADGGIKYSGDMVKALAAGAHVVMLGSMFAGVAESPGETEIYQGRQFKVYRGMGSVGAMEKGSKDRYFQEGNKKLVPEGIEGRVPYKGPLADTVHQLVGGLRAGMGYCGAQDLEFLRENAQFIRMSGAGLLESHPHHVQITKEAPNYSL

BaIMPDH (wild-type) [2] = biological target: T1, BaIMPDH (wild-type); test: biochemical
BaIMPDH (wild-type) [3] = biological target: T1, BaIMPDH (wild-type); test: biochemical; remark: listed apart in the source
BaIMPDH (wild-type) [4] = conditions: cited from earlier work
BaIMPDH = BaIMPDH (Bacillus anthracis, UniProt A0A6L8P2U9); test: biochemical; assay type: biochemical
BaIMPDH, sequence (A0A6L8P2U9 221-487, added parts left off): as above

Ba-, Cj-, and ClpIMPDH = assay type: biochemical
SaIMPDH = SaIMPDH (Staphylococcus aureus, UniProt Q6GJQ7); test: biochemical
SaIMPDH, sequence (Q6GJQ7 whole entry): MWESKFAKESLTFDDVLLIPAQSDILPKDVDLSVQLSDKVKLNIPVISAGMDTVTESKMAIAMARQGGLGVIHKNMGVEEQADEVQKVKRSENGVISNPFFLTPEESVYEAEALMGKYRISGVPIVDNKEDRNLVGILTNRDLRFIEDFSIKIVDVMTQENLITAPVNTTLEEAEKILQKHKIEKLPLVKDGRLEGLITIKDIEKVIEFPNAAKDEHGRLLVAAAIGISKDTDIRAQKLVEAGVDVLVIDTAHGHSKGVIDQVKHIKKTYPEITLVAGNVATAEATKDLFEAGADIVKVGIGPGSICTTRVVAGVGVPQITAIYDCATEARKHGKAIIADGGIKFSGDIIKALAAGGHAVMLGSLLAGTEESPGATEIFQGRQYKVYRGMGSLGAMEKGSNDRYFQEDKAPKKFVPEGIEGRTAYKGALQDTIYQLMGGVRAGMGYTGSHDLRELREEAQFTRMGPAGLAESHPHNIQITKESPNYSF

CpIMPDH = CpIMPDH (Cryptosporidium parvum, UniProt Q8T6T2); test: biochemical
CpIMPDH, sequence (Q8T6T2 whole entry): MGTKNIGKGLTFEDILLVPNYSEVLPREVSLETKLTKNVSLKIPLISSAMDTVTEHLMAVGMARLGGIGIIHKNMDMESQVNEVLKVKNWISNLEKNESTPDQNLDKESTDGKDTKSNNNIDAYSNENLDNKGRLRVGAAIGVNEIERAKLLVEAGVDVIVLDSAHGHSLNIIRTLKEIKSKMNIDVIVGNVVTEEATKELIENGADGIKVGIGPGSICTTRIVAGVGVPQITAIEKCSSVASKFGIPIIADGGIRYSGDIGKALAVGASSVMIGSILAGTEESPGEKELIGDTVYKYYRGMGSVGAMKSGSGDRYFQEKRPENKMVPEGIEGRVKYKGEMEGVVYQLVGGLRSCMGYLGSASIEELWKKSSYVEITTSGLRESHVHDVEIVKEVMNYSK

SpIMPDH = SpIMPDH (Streptococcus pyogenes, UniProt P0C0H6); test: biochemical
SpIMPDH, sequence (P0C0H6 whole entry): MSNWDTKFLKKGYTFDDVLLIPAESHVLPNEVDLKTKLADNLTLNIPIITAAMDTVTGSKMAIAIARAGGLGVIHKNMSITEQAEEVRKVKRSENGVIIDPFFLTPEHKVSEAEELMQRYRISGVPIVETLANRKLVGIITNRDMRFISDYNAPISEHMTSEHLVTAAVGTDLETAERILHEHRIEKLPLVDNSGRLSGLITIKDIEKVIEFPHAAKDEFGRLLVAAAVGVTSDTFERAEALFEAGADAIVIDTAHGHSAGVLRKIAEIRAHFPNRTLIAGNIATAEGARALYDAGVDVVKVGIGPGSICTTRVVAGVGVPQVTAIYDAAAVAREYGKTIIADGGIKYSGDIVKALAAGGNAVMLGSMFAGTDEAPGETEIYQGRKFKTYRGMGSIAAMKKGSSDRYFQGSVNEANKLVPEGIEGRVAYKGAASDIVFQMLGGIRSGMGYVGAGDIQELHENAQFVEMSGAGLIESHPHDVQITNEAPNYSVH

BaIMPDH (wild-type) [5] = biological target: T1, BaIMPDH (wild-type); test: biochemical; assay type: biochemical
BaIMPDH (wild-type) [6] = biological target: T1, BaIMPDH (wild-type); assay type: biochemical
[7] = k–8/k8, inhibitor dissociation constant from E·IMP
[8] = k–9/k9, inhibitor dissociation constant from E-XMP*

C/C(=N\O)c1cccc(C(C)(C)NC(=O)Nc2ccc(Cl)c(-c3nc(C(F)(F)F)cs3)c2)c1 [P182]
Ki (CjIMPDH): 0.032 ± 0.006 µM
Ki (BaIMPDH (wild-type) [1]): 0.008 µM

C=C(C)c1cccc(C(C)(C)NC(=O)Nc2ccc(Cl)c(NC3OCC(O)C(O)C3O)c2)c1 (stereo not shown) [P176]
Ki (CjIMPDH): 0.177 µM and 0.077 µM
Ki (BaIMPDH (wild-type) [1]): 0.016 µM

C=C(C)c1cccc(C(C)(C)NC(=O)Nc2ccc(Cl)c(OCC(=O)O)c2)c1 [P225]
Ki (CjIMPDH): 0.02 ± 0.01 µM
Ki (BaIMPDH (wild-type) [1]): 0.004 µM and 0.00043 µM

C[C@H](Oc1cccc2ccccc12)C(=O)Nc1ccc2oc(-c3ccncc3)nc2c1 [Q21]
preference for E-XMP* over E·IMP (BaIMPDH (wild-type) [2]): same affinity for both enzyme forms
Kd (BaIMPDH (wild-type) [2]; [7]): 0.038 µM
Kd (BaIMPDH (wild-type) [2]; [8]): 0.043 µM
Ki (BaIMPDH (wild-type) [1]): 0.063 µM and 0.023 µM

O=c1[nH]c(=O)c2ncn([C@@H]3O[C@H](COP(=O)(O)O)[C@@H](O)[C@H]3O)c2[nH]1 [XMP, xanthosine 5′-monophosphate]
Kd (BaIMPDH (wild-type) [3]): 404 µM

Cn1nc(CC(=O)Nc2ccc3oc4c(c3c2)CCCC4)c2ccccc2c1=O [D67]
Kd (BaIMPDH (wild-type) [2]; [7]): 1.1 µM
Kd (BaIMPDH (wild-type) [2]; [8]): 0.42 µM
Ki (BaIMPDH (wild-type) [1]): 0.698 µM and 0.671 µM

O=C(Cn1c(-c2ccccn2)nc2ccccc21)Nc1ccc2ccccc2c1 [C91]
fold more potent inhibitor of BaIMPDH (BaIMPDH (wild-type) [4]): 10 fold
k-9 (BaIMPDH (wild-type) [2]): 0.0976
Kd (BaIMPDH (wild-type) [2]; [7]): 0.28 µM
Kd (BaIMPDH (wild-type) [2]; [8]): 0.11 µM
koff (BaIMPDH (wild-type) [2]; read-out: k-8): 0.239 s⁻¹
koff (BaIMPDH (wild-type) [2]; read-out: k-9): 0.0844 s⁻¹

NC(=O)c1csc([C@@H]2O[C@H](CO)[C@@H](O)[C@H]2O)n1 [tiazofurin]
Ki (BaIMPDH): 620 µM

CC(C)(NC(=O)Nc1ccc(Cl)cc1)c1cccc(/C(N)=N/O)c1 [P200]
Ki (CjIMPDH): 0.145 ± 0.04 µM
difference in affinity across the three enzymes (Ba-, Cj-, and ClpIMPDH): > 5 fold
Ki (BaIMPDH (wild-type) [1]): 0.016 µM

Nc1ncnc2c1ncn2[C@@H]1O[C@H](COP(=O)(O)OP(=O)(O)O)[C@@H](O)[C@H]1O [ADP]
Ki (BaIMPDH; read-out: Ki,app): 6200 µM

C/C(=N\O)c1cccc(C(C)(C)NC(=O)Nc2ccc(Cl)c(C(N)=O)c2)c1 [P32]
Ki (SaIMPDH): 0.023 ± 0.01 µM
Ki (CpIMPDH): 0.005 ± 0.002 µM
Ki (CjIMPDH): 0.095 ± 0.005 µM
Ki (BaIMPDH (wild-type) [1]): 0.052 µM and 0.047 µM
Ki (SpIMPDH): 0.164 ± 0.01 µM

NC(=O)C1=CN([C@@H]2O[C@H](COP(=O)(O)OP(=O)(O)OC[C@H]3O[C@@H](n4cnc5c(N)ncnc54)[C@H](O)[C@@H]3O)[C@@H](O)[C@H]2O)C=CC1 [NADH]
k4 (NADH release) (BaIMPDH (wild-type) [5]): >446 s^–1
k–4 (NADH association) (BaIMPDH (wild-type) [5]): >3.8 μM^–1 s^–1
Kd (BaIMPDH (wild-type) [5]; read-out: k4/k–4): 120 µM

C/C(=N\OCCN)c1cccc(C(C)(C)NC(=O)Nc2ccc(Cl)c([N+](=O)[O-])c2)c1 [P131]
Kd (BaIMPDH (wild-type) [2]; [7]): 0.11 µM
Kd (BaIMPDH (wild-type) [2]; [8]): 0.061 µM
Ki (BaIMPDH (wild-type) [1]): 0.094 µM

NC(=O)c1ccc[n+]([C@@H]2O[C@H](COP(=O)([O-])OP(=O)(O)OC[C@H]3O[C@@H](n4cnc5c(N)ncnc54)[C@H](O)[C@@H]3O)[C@@H](O)[C@H]2O)c1 [NAD^+]
apparent Michaelis constant for NAD+, KmB (BaIMPDH (wild-type) [6]): 683 [ 601 , 779 ] µM
Ki (BaIMPDH (wild-type) [6]; read-out: Ki(NAD^+)): 9600 ± 2100 µM
Km (BaIMPDH (wild-type) [6]; read-out: Km(NAD^+)): 590 ± 100 µM
k2 (NAD^+ association with E·IMP) (BaIMPDH (wild-type) [5]): 0.0309 μM^–1 s^–1
k7 (NAD^+ association with E-XMP*) (BaIMPDH (wild-type) [5]): 0.00398 μM^–1 s^–1
k–2 (NAD^+ dissociation from E·IMP·NAD^+) (BaIMPDH (wild-type) [5]): 11.7 s^–1
k–7 (NAD^+ dissociation from E-XMP*·NAD^+) (BaIMPDH (wild-type) [5]): 31.8 s^–1
Kd (BaIMPDH (wild-type) [5]; read-out: k–2/k2): 380 µM
Kd (BaIMPDH (wild-type) [5]; read-out: k–7/k7): 8000 µM

C[C@@H](Oc1cc[n+]([O-])c2ccccc12)c1cn(-c2ccc(Cl)cc2)nn1 [A110]
Kd (BaIMPDH (wild-type) [2]; [8]): 0.065 µM
Kd (BaIMPDH (wild-type) [5]; k–8/k8): 1.7 µM
Kd (BaIMPDH (wild-type) [5]; k–9/k9): 0.085 µM
kon at 6 µM (BaIMPDH (wild-type) [5]; read-out: k8 (inhibitor association with E·IMP)): 9.33e+06 M⁻¹ s⁻¹
kon (BaIMPDH (wild-type) [5]; read-out: k9 (inhibitor association with E-XMP*)): 3.52e+06 M⁻¹ s⁻¹
koff (BaIMPDH (wild-type) [5]; read-out: k–8 (inhibitor dissociation from E·IMP·I)): 15.6 s⁻¹
koff (BaIMPDH (wild-type) [5]; read-out: k–9 (inhibitor dissociation from E-XMP*·I)): 0.3 s⁻¹
Ki (BaIMPDH (wild-type) [1]): 0.081 µM and 0.059 µM

C=C(C)c1cccc(C(C)(C)NC(=O)Nc2ccc(Cl)c(NC3OC[C@@H](O)[C@H](O)[C@@H]3O)c2)c1 (stereo partly shown) [P221]
Ki (CjIMPDH): 0.046 µM
Ki (BaIMPDH (wild-type) [1]): 0.02 µM

C=C(C)c1cccc(C(C)(C)NC(=O)Nc2ccc(Cl)c(OC3OC(CO)C(O)C3O)c2)c1 (stereo not shown) [P178]
Ki (CjIMPDH): 0.097 µM
difference in affinity across the three enzymes (Ba-, Cj-, and ClpIMPDH): > 5 fold
Ki (BaIMPDH (wild-type) [1]): 0.012 µM
